Here are results for three compounds from article PMC5548696 (Bioorganic & medicinal chemistry letters, 2017).

Assay [1] concerns the target T1, Recombinant human ENGase (Homo sapiens, UniProt Q8NFI3).
T1 sequence (Q8NFI3 1-743): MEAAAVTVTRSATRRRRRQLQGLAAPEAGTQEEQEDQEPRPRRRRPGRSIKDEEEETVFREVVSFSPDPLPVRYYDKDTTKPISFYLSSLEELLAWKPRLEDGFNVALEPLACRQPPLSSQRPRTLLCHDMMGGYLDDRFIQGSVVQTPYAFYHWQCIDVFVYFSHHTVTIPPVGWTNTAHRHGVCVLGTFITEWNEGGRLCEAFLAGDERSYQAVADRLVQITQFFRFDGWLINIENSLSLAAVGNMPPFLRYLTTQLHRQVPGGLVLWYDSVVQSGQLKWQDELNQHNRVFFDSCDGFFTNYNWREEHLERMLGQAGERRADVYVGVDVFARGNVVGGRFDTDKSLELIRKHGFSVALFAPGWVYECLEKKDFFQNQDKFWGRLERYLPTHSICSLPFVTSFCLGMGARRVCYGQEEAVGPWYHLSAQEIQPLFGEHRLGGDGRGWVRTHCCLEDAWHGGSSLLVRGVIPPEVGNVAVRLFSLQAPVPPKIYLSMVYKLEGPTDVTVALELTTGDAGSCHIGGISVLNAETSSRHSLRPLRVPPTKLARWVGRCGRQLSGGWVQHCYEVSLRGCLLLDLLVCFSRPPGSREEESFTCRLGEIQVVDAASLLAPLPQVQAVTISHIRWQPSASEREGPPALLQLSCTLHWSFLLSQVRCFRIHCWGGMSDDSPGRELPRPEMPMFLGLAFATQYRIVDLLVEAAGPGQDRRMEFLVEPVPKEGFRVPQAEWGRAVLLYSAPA
Format: biochemical. The following applies: 100 μM drug concentration; first round, 13 drugs.

Assay [2] concerns H+/K+ ATPase. Conditions: cited from earlier work.
The target of assay [3] is human ENGase. Conditions: read-out: IC50, human ENGase inhibitors; earlier reports; cited from earlier work.

`Cc1c(OCC(F)(F)F)ccnc1C[S+]([O-])c1nc2ccccc2[nH]1` (stereo not drawn) [Lansoprazole]: the “inhibition of ENGase enzyme activity, preliminary ENGase inhibitor screening” value in assay [1] is recorded as “inhibited ENGase enzyme activity”.
On to `COCCCOc1ccnc(C[S+]([O-])c2nc3ccccc3[nH]2)c1C` (stereo not drawn) [Rabeprazole], for which, in assay [2], the target affinity is ~ 70 nM.
In general, IC50 refers to the concentration that inhibits the measured activity by half. Turning to Man9GlcNAc-thiazoline, the IC50 in assay [3] is 420 nM.
